This note sets out measurements from ChEMBL document CHEMBL1201862, “PubChem BioAssay data set” (2004).

Among the test systems are SW-620; CCRF-CEM; OVCAR-8; OVCAR-3; HT-29; SR; HL-60; RPMI-8226; EKVX; NCI-H522; SN12C; UACC-257; SK-MEL-28; SF-295; HCT-15; HOP-92; MOLT-4; HOP-62; MCF7.
Holding throughout (assay): inhibition of tumour cell growth, NCI panel, 48 h

SMILES strings stand for the structures.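 Each compound was tested at five concentrations against cells in 96-well plates for 48 hours. GI50: concentration for 50% inhibition of growth.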 The source made the active and inactive calls. No stated cut-off is given here; in the data, active = GI50 up to about 1.1 µM and inactive = higher.

Turning to `CCOC(=O)C(=O)Nc1c(C)cccc1C(C)C`, the GI50 in the assay with SW-620, with CCRF-CEM, in the assay on OVCAR-8, with OVCAR-3, with HT-29 and in the assay on SR was > 100 µM (inactive) each time. In addition, the GI50 in the assay with HL-60, with RPMI-8226, in the assay on EKVX, in the assay with NCI-H522, with SN12C and in the assay on UACC-257 was > 100 µM (inactive) in each case. In addition, the GI50 in the assay on SK-MEL-28 is > 100 µM (inactive); with SF-295, > 100 µM (inactive); in the assay on HCT-15 it was greater than 100 µM; in the assay on HOP-92, > 100 µM (inactive); in the assay with MOLT-4 it was > 100 µM (inactive); in the assay with HOP-62 it was > 100 µM (inactive).

With `C[C@]12CCC[C@H](OC=O)C1(O)C[C@H](C(=O)O)CC2` (some centres undefined), the GI50 with SW-620, with CCRF-CEM, with OVCAR-8, in the assay with OVCAR-3, with HT-29 and in the assay on SR was > 100 µM (inactive) in each case. The GI50 with HL-60 was > 100 µM (inactive); in the assay on RPMI-8226, > 100 µM (inactive); in the assay with EKVX it was 19.8 µM (inactive); in the assay with NCI-H522 it was > 100 µM (inactive); in the assay on SN12C, > 100 µM (inactive); with UACC-257 it was > 100 µM (inactive). Also, the GI50 in the assay with SK-MEL-28 is > 100 µM (inactive); in the assay with SF-295 it was > 100 µM (inactive); with HCT-15, greater than 100 µM; with HOP-92, > 100 µM (inactive); in the assay on MOLT-4 it was > 100 µM (inactive); with HOP-62 it was > 100 µM (inactive).

Turning to `OC(/C(=N/c1ccccc1)c1ccccc1)c1ccccc1` (centres undefined), the GI50 was 10.5 µM (inactive) in the assay with SW-620; 3.32 µM (inactive) with CCRF-CEM; 2.66 µM (inactive) in the assay on OVCAR-3; 5.22 µM (inactive) in the assay with HT-29; 3.53 µM (inactive) with SR; 5.62 µM (inactive) in the assay with MCF7. For the same molecule, the GI50 with HL-60 is 2.94 µM (inactive); in the assay on RPMI-8226 it was 4.49 µM (inactive); in the assay with EKVX it was 2.48 µM (inactive); in the assay on NCI-H522, 4.35 µM (inactive); in the assay with SN12C, 10.7 µM (inactive); in the assay with UACC-257 it was 2.17 µM (inactive). The GI50 with SK-MEL-28 was 2.66 µM (inactive); with SF-295 it was 9.71 µM (inactive); in the assay with HCT-15, 29 µM; in the assay with HOP-92, 4.05 µM (inactive); with MOLT-4, 6.62 µM (inactive); with HOP-62 it was 17.1 µM (inactive).

Turning to `COc1ccc2c(c1)[n+]([O-])c(-c1ccc(Br)cc1)c(N)[n+]2[O-]`, the GI50 in the assay on SW-620 was 40.2 µM (inactive); with CCRF-CEM, 50.4 µM (inactive); in the assay on OVCAR-8 it was 37.2 µM (inactive); in the assay on OVCAR-3 it was 35.4 µM (inactive); in the assay with HT-29, 44.4 µM (inactive); with SR, 36.6 µM (inactive). The GI50 was 21.1 µM (inactive) in the assay on HL-60; 51.1 µM (inactive) in the assay with EKVX; 15.6 µM (inactive) in the assay with NCI-H522; 47 µM (inactive) in the assay with SN12C; 32.4 µM (inactive) in the assay on UACC-257; 23.2 µM (inactive) with SK-MEL-28. Moreover, the GI50 in the assay with SF-295 was 96.2 µM (inactive); in the assay with HOP-92, > 100 µM (inactive); in the assay with MOLT-4 it was 36.8 µM (inactive); in the assay on HOP-62, 88.3 µM (inactive).

`COc1ccc(C(C#N)NNC(=O)Cc2ccccc2)cc1OC` (centres undefined): the GI50 in the assay on SW-620, in the assay with CCRF-CEM, with OVCAR-8, in the assay on HT-29, in the assay on SR and in the assay on HL-60 was > 100 µM (inactive) throughout. Also, the GI50 in the assay on RPMI-8226, with NCI-H522, with SN12C, in the assay with UACC-257, with SK-MEL-28 and in the assay with SF-295 was > 100 µM (inactive) each time. Also, the GI50 in the assay with HCT-15 was greater than 100 µM; in the assay with HOP-92, > 100 µM (inactive); in the assay on MOLT-4, > 100 µM (inactive); in the assay with HOP-62, > 100 µM (inactive).

For the molecule `c1ccc(C(/C(=N/c2ccc(Cc3ccc(/N=C(\C(c4ccccc4)c4ccccc4)N4CC4)cc3)cc2)N2CC2)c2ccccc2)cc1`, the GI50 in the assay with SW-620 was 6.3 µM (inactive); with CCRF-CEM, 3.18 µM (inactive); in the assay on OVCAR-8 it was 10.7 µM (inactive); with OVCAR-3 it was 3.66 µM (inactive); in the assay with HT-29, 3.1 µM (inactive); in the assay on SR, 1.31 µM (inactive). For the same molecule, the GI50 with MCF7 was 3.1 µM (inactive); with HL-60 it was 4.23 µM (inactive); in the assay with RPMI-8226, 3.65 µM (inactive); in the assay with EKVX it was 10.1 µM (inactive); with NCI-H522, 3.14 µM (inactive); in the assay on SN12C, 14.3 µM (inactive). Besides, the GI50 was 11.6 µM (inactive) with UACC-257; 9.46 µM (inactive) in the assay on SK-MEL-28; 9.31 µM (inactive) in the assay with SF-295; 10.1 µM in the assay on HCT-15; 12.8 µM (inactive) with HOP-62.

In the case of `O=C(NCCNCCCNC(=O)c1cc(-c2ccccc2)nc2ccccc12)c1cccc(O)c1O`, the GI50 with SW-620 was 4.47 µM (inactive); in the assay on CCRF-CEM, 0.697 µM (active); with OVCAR-8, 2.38 µM (inactive); in the assay with OVCAR-3, 2.38 µM (inactive); in the assay on HT-29 it was 4.88 µM (inactive); with MCF7, 3.3 µM (inactive). Also, the GI50 is 3.21 µM (inactive) in the assay on HL-60; 2.85 µM (inactive) in the assay with RPMI-8226; 24.4 µM (inactive) in the assay on EKVX; 6.82 µM (inactive) in the assay with NCI-H522; 1.95 µM (inactive) in the assay on SN12C; 4.01 µM (inactive) with UACC-257. Moreover, the GI50 with SK-MEL-28 is 1.72 µM (inactive); in the assay on SF-295, 1.84 µM (inactive); in the assay with HCT-15, 5.36 µM; with HOP-92, 14.9 µM (inactive); in the assay on MOLT-4, 0.916 µM (active); in the assay with HOP-62, 1.05 µM (active).

Consider `CC(C)N1C(C)[C@@H](c2ccccc2)O[P@]1(=O)CC1=CCCCC1` (some centres undefined), for which the GI50 in the assay on SW-620 was 61.2 µM (inactive); in the assay on CCRF-CEM, 35.6 µM (inactive); in the assay with OVCAR-8, > 100 µM (inactive); in the assay with OVCAR-3 it was 62.7 µM (inactive); with HT-29, > 100 µM (inactive); in the assay with SR, 44.5 µM (inactive). The GI50 is 22.4 µM (inactive) in the assay with HL-60; 62.8 µM (inactive) in the assay on RPMI-8226; 85.9 µM (inactive) in the assay with EKVX; 97.5 µM (inactive) with NCI-H522; > 100 µM (inactive) in the assay on SN12C; 68.1 µM (inactive) in the assay with UACC-257. Further, the GI50 in the assay with SK-MEL-28 is > 100 µM (inactive); in the assay with SF-295, 40.9 µM (inactive); in the assay with HCT-15 it was greater than 100 µM; in the assay on HOP-92, 42.2 µM (inactive); with MOLT-4 it was 44.3 µM (inactive); with HOP-62 it was > 100 µM (inactive).
